Measurements reported in ChEMBL document CHEMBL1137149, “Bile acid conjugates of a nonsteroidal glucocorticoid receptor modulator” (Bioorg Med Chem Lett, 2004).

Key:
Glucocorticoid receptor [1] = target: T1, Glucocorticoid receptor (Homo sapiens, UniProt P04150)
T1 sequence (P04150 whole entry): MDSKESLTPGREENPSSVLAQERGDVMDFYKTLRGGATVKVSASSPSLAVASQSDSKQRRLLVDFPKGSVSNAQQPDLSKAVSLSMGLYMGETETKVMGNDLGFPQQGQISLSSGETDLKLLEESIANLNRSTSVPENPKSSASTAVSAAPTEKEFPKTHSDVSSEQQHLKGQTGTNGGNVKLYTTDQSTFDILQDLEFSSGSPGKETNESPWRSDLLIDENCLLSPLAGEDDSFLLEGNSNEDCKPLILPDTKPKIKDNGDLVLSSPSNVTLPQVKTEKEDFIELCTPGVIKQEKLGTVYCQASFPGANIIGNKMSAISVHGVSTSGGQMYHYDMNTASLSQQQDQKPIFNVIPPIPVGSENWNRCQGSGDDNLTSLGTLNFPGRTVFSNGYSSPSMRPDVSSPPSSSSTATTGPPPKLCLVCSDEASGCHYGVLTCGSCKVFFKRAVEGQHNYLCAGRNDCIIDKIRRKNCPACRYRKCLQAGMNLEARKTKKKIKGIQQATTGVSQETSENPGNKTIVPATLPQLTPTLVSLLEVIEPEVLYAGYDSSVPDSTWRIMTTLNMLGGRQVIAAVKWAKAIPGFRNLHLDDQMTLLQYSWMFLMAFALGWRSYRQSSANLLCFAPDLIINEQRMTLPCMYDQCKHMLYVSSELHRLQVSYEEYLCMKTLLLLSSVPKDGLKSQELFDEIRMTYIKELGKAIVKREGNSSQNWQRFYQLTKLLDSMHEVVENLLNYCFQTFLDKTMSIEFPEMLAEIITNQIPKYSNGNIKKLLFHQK

Glucocorticoid receptor [2] = target: T1, Glucocorticoid receptor; format: functional
Description: Inhibition of glucocorticoid receptor Dexamethasone response in reporter gene assay

Glucocorticoid receptor [3] = target: T2, Glucocorticoid receptor (Rattus norvegicus, UniProt P06536); format: functional, cell-based; settings: hepatocyte
T2 sequence (P06536 whole entry): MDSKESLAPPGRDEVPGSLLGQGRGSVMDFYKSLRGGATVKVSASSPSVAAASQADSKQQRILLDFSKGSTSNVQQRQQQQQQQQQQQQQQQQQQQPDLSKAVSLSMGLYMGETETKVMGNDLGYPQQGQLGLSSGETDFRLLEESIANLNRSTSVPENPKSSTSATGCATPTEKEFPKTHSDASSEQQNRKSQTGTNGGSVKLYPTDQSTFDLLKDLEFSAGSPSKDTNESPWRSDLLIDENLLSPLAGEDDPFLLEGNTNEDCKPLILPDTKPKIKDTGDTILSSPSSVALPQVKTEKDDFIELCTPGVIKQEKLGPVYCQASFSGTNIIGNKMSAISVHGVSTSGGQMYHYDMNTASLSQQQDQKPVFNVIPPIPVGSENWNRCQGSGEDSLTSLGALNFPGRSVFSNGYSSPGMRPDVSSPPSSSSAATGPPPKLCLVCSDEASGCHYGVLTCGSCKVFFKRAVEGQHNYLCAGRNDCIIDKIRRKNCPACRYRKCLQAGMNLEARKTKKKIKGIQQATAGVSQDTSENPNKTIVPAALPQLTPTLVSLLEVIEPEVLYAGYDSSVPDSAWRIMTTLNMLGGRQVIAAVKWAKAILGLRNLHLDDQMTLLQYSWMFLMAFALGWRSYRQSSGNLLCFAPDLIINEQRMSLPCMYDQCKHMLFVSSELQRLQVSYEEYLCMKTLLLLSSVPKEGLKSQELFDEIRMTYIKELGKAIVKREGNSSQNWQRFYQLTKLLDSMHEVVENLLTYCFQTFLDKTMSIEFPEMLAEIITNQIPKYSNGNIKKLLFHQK

[4] = target: T3, Hepatic sodium/bile acid cotransporter (Rattus norvegicus, UniProt P26435)
T3 sequence (P26435 whole entry): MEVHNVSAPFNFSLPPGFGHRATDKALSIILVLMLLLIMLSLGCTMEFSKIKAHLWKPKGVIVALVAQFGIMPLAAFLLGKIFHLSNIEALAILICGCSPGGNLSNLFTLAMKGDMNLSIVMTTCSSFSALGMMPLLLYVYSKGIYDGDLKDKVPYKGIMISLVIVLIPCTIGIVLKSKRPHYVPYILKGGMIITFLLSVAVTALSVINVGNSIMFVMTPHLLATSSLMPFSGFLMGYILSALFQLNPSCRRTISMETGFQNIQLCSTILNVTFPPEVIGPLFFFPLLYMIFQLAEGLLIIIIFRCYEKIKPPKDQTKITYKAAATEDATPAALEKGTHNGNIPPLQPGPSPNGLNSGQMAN

Row | SMILES | IC50 (Glucocorticoid receptor [1]) | IC50 (Glucocorticoid receptor [2]) | IC50 (Glucocorticoid receptor [3]) | IC50 [4]
1 | Cc1c(NS(C)(=O)=O)cccc1N(Cc1ccc(Oc2ccccc2)cc1)Cc1cccc(CCCC(=O)NCCO[C@H]2CC[C@@]3(C)[C@@H](C2)C[C@@H](O)[C@@H]2[C@@H]3C[C@H](O)[C@]3(C)[C@@H]([C@H](C)CCC(=O)O)CC[C@@H]23)c1 | 93 nM |  |  | 
2 | Cc1c(NS(C)(=O)=O)cccc1N(Cc1ccccc1)Cc1ccc(Oc2cccc(OCC(=O)NCCO[C@H]3CC[C@@]4(C)[C@@H](C3)C[C@@H](O)[C@@H]3[C@@H]4C[C@H](O)[C@]4(C)[C@@H]([C@H](C)CCC(=O)O)CC[C@@H]34)c2)cc1 | 57 nM | 590 nM |  | 
3 | Cc1c(NS(C)(=O)=O)cccc1N(Cc1ccccc1)Cc1ccc(Oc2ccc(CCCC(=O)NCCO[C@H]3CC[C@@]4(C)[C@@H](C3)C[C@@H](O)[C@@H]3[C@@H]4C[C@H](O)[C@]4(C)[C@@H]([C@H](C)CCC(=O)O)CC[C@@H]34)cc2)cc1 | 50 nM |  |  | 
4 | Cc1c(NS(C)(=O)=O)cccc1N(Cc1ccccc1)Cc1ccc(CCC(=O)NCCO[C@H]2CC[C@@]3(C)[C@@H](C2)C[C@@H](O)[C@@H]2[C@@H]3C[C@H](O)[C@]3(C)[C@@H]([C@H](C)CCC(=O)O)CC[C@@H]23)cc1 | 560 nM | 310 nM |  | 
5 | Cc1c(NS(C)(=O)=O)cccc1N(Cc1ccccc1)Cc1ccc(Oc2cccc(CCCC(=O)NCCO[C@@H]3CC[C@]4(C)[C@H](C3)C[C@H](O)[C@@H]3[C@@H]4C[C@@H](O)[C@]4(C)[C@H]3CC[C@H]4[C@@H](C)CCC(=O)O)c2)cc1 | 62 nM | 390 nM |  | 
6 | Cc1c(NS(C)(=O)=O)cccc1N(Cc1ccc(Oc2ccc(CCC(=O)NCCO[C@@H]3CC[C@]4(C)[C@H](C3)C[C@H](O)[C@@H]3[C@@H]4C[C@@H](O)[C@]4(C)[C@H]3CC[C@H]4[C@@H](C)CCC(=O)O)cc2)cc1)Cc1ccc(F)cc1F | 270 nM |  |  | 
7 | Cc1c(NS(C)(=O)=O)cccc1N(Cc1ccc(CCCC(=O)NCCO[C@@H]2CC[C@]3(C)[C@H](C2)C[C@H](O)[C@@H]2[C@@H]3C[C@@H](O)[C@]3(C)[C@H]2CC[C@H]3[C@@H](C)CCC(=O)O)cc1)Cc1ccc(Oc2ccccc2)cc1 | 260 nM |  |  | 
8 | Cc1c(NS(C)(=O)=O)cccc1N(Cc1ccccc1)Cc1ccc(Oc2ccc(CCC(=O)NCCO[C@@H]3CC[C@]4(C)[C@H](C3)C[C@H](O)[C@@H]3[C@@H]4C[C@@H](O)[C@]4(C)[C@H]3CC[C@H]4[C@@H](C)CCC(=O)O)cc2)cc1 | 17 nM | 450 nM | Not Active | 4 nM
